The target in this assay is T1, acetylcholine-binding protein (AcAChBP) (Aplysia californica, UniProt Q8WSF8).
T1 sequence (Q8WSF8 20-236): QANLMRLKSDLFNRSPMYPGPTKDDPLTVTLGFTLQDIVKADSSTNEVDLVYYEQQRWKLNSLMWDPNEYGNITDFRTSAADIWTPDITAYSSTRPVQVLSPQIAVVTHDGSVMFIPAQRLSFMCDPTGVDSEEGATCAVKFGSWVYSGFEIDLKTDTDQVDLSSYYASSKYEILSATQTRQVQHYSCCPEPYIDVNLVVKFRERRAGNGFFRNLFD
The assay can be described thus: tryptophan fluorescence quenching.

Each structure is given as a SMILES string.

`C[N+]1(C)CCc2cc3c(cc2[C@H]1[C@@H]1OC(=O)c2c1ccc1c2OCO1)OCO3` [N-methylbicuculline]: the affinity, expressed as Kd, was 1200 ± 100 nM.
